conditions: not given

In order of rising boiling point:
1. C1=CCOC1  66.5 °C
2. CC1CCCC1  71.8 °C
3. CCCCS  98.5 °C
4. CCCCCON=O  104 °C
5. C=CC(O)C=C  116 °C
6. Cc1ccc(C(F)(F)F)cc1  129 °C
7. NC1CCCCC1  134 °C
8. COS(=O)(=O)Cl  134 °C
9. C1CC2CCCC2C1 (centres undefined)  139 °C
10. CCC(C)C(C)C(C)C (centres undefined)  139 °C
11. COCCOC(C)=O  143 °C
12. ClCCCBr  143 °C
13. CCCN(CCC)CCC  156 °C
14. CCC(=O)CO  160 °C
15. CC(C)(C)c1ccccn1  170 °C
16. Brc1cccnc1  173 °C
17. CCCCOCOCCCC  179 °C
18. CCCCOC(=O)C(C)CC (centres undefined)  179 °C
19. Cc1cccc(Cl)c1O  189 °C
20. CCCCCCOCCO  208 °C
21. CC1C=CC(=O)O1 (centres undefined)  209 °C
22. CCCCCCC(O)CCC (centres undefined)  210 °C
23. NNCCO  219 °C
24. Cc1c(O)cccc1Cl  225 °C
25. CCCCCCOC(=O)CCCC  226 °C
26. CCCCCCCC=CC=O  230 °C
27. COC(=O)c1ccc(C)cc1C  232 °C
28. N#CCc1ccccc1  234 °C
29. O=C(Cl)c1ccc(Br)cc1  246 °C
30. CCCc1cccc(CCC)c1O  256 °C
31. CCC(=O)c1cccc(OC)c1  259 °C
32. Oc1ccc(O)c(Cl)c1  263 °C
33. CCc1cnc2ccccc2c1  266 °C
34. COc1ccc([N+](=O)[O-])cc1  274 °C
35. CCc1cccc(C)c1N(C(=O)CCl)[C@@H](C)COC  282 °C
36. CC(=O)c1ccc(N)cc1  294 °C
37. CC(=O)C(c1ccccc1)c1ccccc1  307 °C

In order of rising log10 vapour pressure (mmHg):
1. COP(=S)(Oc1cc(Cl)c(Br)cc1Cl)c1ccccc1 (centres undefined)  -7.64
2. CCCCOC(=O)N(C)SN(C)C(=O)Oc1cccc2c1OC(C)(C)C2  -7.53
3. Nc1ccccc1-c1ccccc1N  -5.57
4. CCCCCCCC/C=C\CCCCCCCC(=O)OC  -5.2
5. CN(C)c1ccc(C=O)cc1  -2.43
6. N#CCc1ccccc1  -1.05
7. CCCCCCOCCO  -0.81
8. CCCN(CCC)CCC  0.179
9. Brc1cccnc1  0.244
10. COCCOC(C)=O  0.301
11. CCCCCON=O  0.598
12. ClCCCBr  0.806
13. CCC(C)C(C)C(C)C (centres undefined)  0.955
14. NC1CCCCC1  1
15. CCCCS  1.66
16. CC1CCCC1  2.14
17. C1=CCOC1  2.2

In order of rising melting point:
1. CC1CCCC1  -142 °C
2. CCCCS  -116 °C
3. CCCN(CCC)CCC  -93.5 °C
4. COCCOC(C)=O  -70 °C
5. COS(=O)(=O)Cl  -70 °C
6. NNCCO  -70 °C
7. CCCCCCOC(=O)CCCC  -63.1 °C
8. ClCCCBr  -58.9 °C
9. CCCCOCOCCCC  -58.1 °C
10. CCCCCCOCCO  -45.1 °C
11. CC(C)(C)c1ccccn1  -33 °C
12. N#CCc1ccccc1  -23.8 °C
13. CCCCCCCC/C=C\CCCCCCCC(=O)OC  -19.9 °C
14. NC1CCCCC1  -17.7 °C
15. CCCCCCC(O)CCC (centres undefined)  -11 °C
16. CC1Cc2ccccc2CC1C (centres undefined)  -5 °C
17. COC(=O)c1ccc(C)cc1C  -2 °C
18. CCCc1cccc(CCC)c1O  27 °C
19. O=C(Cl)c1ccc(Br)cc1  42 °C
20. O=C=Nc1ccc(Cl)c(Cl)c1  43 °C
21. COC(=O)c1ccc(Cl)cc1  43.5 °C
22. CC(=O)C(c1ccccc1)c1ccccc1  46 °C
23. OC(c1ccc(Cl)cc1)c1cc2ccccc2o1 (centres undefined)  48.5 °C
24. COC(=O)c1cc(Cl)ccc1O  50 °C
25. COc1ccc([N+](=O)[O-])cc1  54 °C
26. BrC(Br)C(Br)(Br)Br  56.5 °C
27. OCc1ccc(Cl)cc1Cl  59.5 °C
28. COP(=S)(Oc1cc(Cl)c(Br)cc1Cl)c1ccccc1 (centres undefined)  70.4 °C
29. CN(C)c1ccc(C=O)cc1  74.5 °C
30. CCC(C)(S(=O)(=O)CC)S(=O)(=O)CC  76 °C
31. CCN1C(=O)OC(C)(C)C1=O  76.5 °C
32. C=CCN=C(S)NCCO  78 °C
33. Nc1ccccc1-c1ccccc1N  81 °C
34. O=S(=O)(Cl)c1ccc2ccccc2c1  81 °C
35. Cc1c(O)cccc1Cl  86 °C
36. c1csc(-c2ccc(-c3cccs3)s2)c1  93.5 °C
37. C=CCC1(C(C)CCC)C(=O)NC(=O)NC1=O (centres undefined)  100 °C
38. COc1ccc(Nc2ccc(N)cc2)cc1  102 °C
39. CC(=O)NBr  104 °C
40. OCC(O)CN1CCN(c2ccccc2)CC1 (centres undefined)  105 °C
41. CC(=O)CC(=O)Nc1ccccc1Cl  105 °C
42. Oc1ccc(O)c(Cl)c1  108 °C
43. NC(=O)c1cccc(N)c1  116 °C
44. C=C(CC)C(=O)c1ccc(OCC(=O)O)c(Cl)c1Cl  122 °C
45. COc1ccc2c3c1O[C@H]1[C@@H](O)CC=C4[C@@H](C2)N(C)CC[C@]431  128 °C
46. OC[C@H]1O[C@H](O[C@]2(CCl)O[C@H](CCl)[C@@H](O)[C@@H]2O)[C@H](O)[C@@H](O)[C@H]1Cl  130 °C
47. CCCCNC(=O)NS(=O)(=O)c1ccccc1  131 °C
48. CC(C=NO)=NO  157 °C
49. COc1ccc2c(=O)c3ccccc3oc2c1CN1CCCCC1  160 °C
50. COC(=O)c1ccccc1S(=O)(=O)NC(=O)Nc1nc(C)nc(OC)n1  162 °C
51. CC(C)NCC(O)COc1cccc2[nH]ccc12 (centres undefined)  171 °C
52. CC(C)C1=CC2=CC[C@@H]3[C@](C)(CCC[C@@]3(C)C(=O)O)[C@H]2CC1  174 °C
53. CC(=O)OCC(=O)[C@H]1CC[C@H]2[C@@H]3CC=C4C[C@@H](O)CC[C@]4(C)[C@H]3CC[C@]12C  184 °C
54. Nc1ccc(Nc2ccccc2)c2c1C(=O)c1ccccc1C2=O  192 °C
55. Cc1c(O)c(Br)c(Br)c(Br)c1Br  208 °C
56. N#CC1=C(C#N)C(=O)C(Cl)=C(Cl)C1=O  214 °C
57. Cc1ccnc(NS(=O)(=O)c2ccc(N)cc2)n1  236 °C
58. CN(C)c1ccc(C(=O)O)cc1  242 °C
59. O=C1C(Br)=C(Br)C(=O)C(Br)=C1Br  293 °C

In the case of `CCCCCCCCC=CCCCCCCCC(=O)OCCCC`, the ready biodegradability is reported as “readily biodegradable”.
For `COCCOC(C)=O`, the ready biodegradability was “readily biodegradable”.
In the case of `OCc1ccc(Cl)cc1Cl`, the ready biodegradability is reported as “readily biodegradable”.
In the case of `O=[N+]([O-])c1ccccc1Cl`, the ready biodegradability is reported as “not readily biodegradable”.
For `CCc1ccccc1-c1ccccc1CC`, the ready biodegradability was “not readily biodegradable”.
In the case of `N#CCc1ccccc1`, the ready biodegradability is reported as “readily biodegradable”.
In the case of `CC(C)C1=CC2C(C)CC1C1C(=O)OC(=O)C21` (centres undefined), the ready biodegradability is reported as “not readily biodegradable”.
In the case of `CC(=O)c1ccc(N)cc1`, the ready biodegradability is reported as “not readily biodegradable”.
For `O=C(O)c1ccc(Cl)c(Cl)c1`, the ready biodegradability was “not readily biodegradable”.
For `NC1CCCCC1`, the ready biodegradability was “readily biodegradable”.
In the case of `COc1ccc([N+](=O)[O-])cc1`, the ready biodegradability is reported as “not readily biodegradable”.
With `CCCCCCCC/C=C\CCCCCCCC(=O)OC` the ready biodegradability was “readily biodegradable”.
For `Cc1ccc([N+](=O)[O-])cc1S(=O)(=O)O`, the ready biodegradability was “not readily biodegradable”.
In the case of `ClCCCBr`, the ready biodegradability is reported as “not readily biodegradable”.
In the case of `CC(C)C1=CC2=CC[C@@H]3[C@](C)(CCC[C@@]3(C)C(=O)O)[C@H]2CC1`, the ready biodegradability is reported as “not readily biodegradable”.

`CC1CCCC1` gave a log10 biodegradation half-life (days) of 0.602.

In order of rising log10 Henry constant (atm·m³/mol):
1. NC1CCCCC1  -5.38
2. CCCCS  -2.34

In order of rising log10 Koc (L/kg):
1. COC(=O)c1ccccc1S(=O)(=O)NC(=O)Nc1nc(C)nc(OC)n1  1.54
2. COP(=S)(Oc1cc(Cl)c(Br)cc1Cl)c1ccccc1 (centres undefined)  4.5

For `Clc1cc2oc3c(Cl)c(Cl)c(Cl)c(Cl)c3c2cc1Cl`, the log10 Koa was 10.8.

same assay, conditions: fish

In order of rising log10 BCF:
1. O=C(O)c1ccc(Cl)c(Cl)c1  0.36
2. COc1ccc([N+](=O)[O-])cc1  1.08
3. O=[N+]([O-])c1ccccc1Cl  1.17
4. CC(C)C1=CC2=CC[C@@H]3[C@](C)(CCC[C@@]3(C)C(=O)O)[C@H]2CC1  1.97
5. COP(=S)(Oc1cc(Cl)c(Br)cc1Cl)c1ccccc1 (centres undefined)  3.78
6. Clc1cc2oc3c(Cl)c(Cl)c(Cl)c(Cl)c3c2cc1Cl  3.9

In order of falling log10 biotransformation half-life (days):
1. Clc1cc(-c2cc(Cl)c(Cl)c(Cl)c2Cl)cc(Cl)c1Cl  2.32
2. COP(=S)(Oc1cc(Cl)c(Br)cc1Cl)c1ccccc1 (centres undefined)  1.26
3. O=[N+]([O-])c1ccccc1Cl  -0.58
4. COc1ccc([N+](=O)[O-])cc1  -0.95
